According to the NIST ThermoML archive (doi:10.1021/je900387e):

Test: xn = mol fraction of the nth substance listed
Details: Liquid, Pycnometric method

CCCCBr [1-bromobutane] + O=C=O
mass density [kg/m3]
Details | 313.1 K | 316.1 K
7910 kPa, x1 = 0.0461 | 769 | –
7950 kPa, x1 = 0.0683 | 826 | –
7990 kPa, x1 = 0.0245 | 619 | –
8000 kPa, x1 = 0.0245 | 621 | –
8010 kPa, x1 = 0.0461 | 775 | –
8030 kPa, x1 = 0.0245 | 628 | –
8060 kPa, x1 = 0.0683 | 829 | –
8070 kPa, x1 = 0.0245 | 635 | –
8090 kPa, x1 = 0.1495 | 1001 | –
8100 kPa, x1 = 0.0245 | 641 | –
8100 kPa, x1 = 0.0461 | 780 | –
8140 kPa, x1 = 0.0245 | 649 | –
8170 kPa, x1 = 0.0683 | 832 | –
8170 kPa, x1 = 0.0989 | 893 | –
8190 kPa, x1 = 0.0245 | 656 | –
8240 kPa, x1 = 0.0245 | 663 | –
8240 kPa, x1 = 0.0461 | 786 | –
8270 kPa, x1 = 0.0245 | – | 528
8280 kPa, x1 = 0.0245 | – | 532
8290 kPa, x1 = 0.0683 | 835 | –
8300 kPa, x1 = 0.0245 | 671 | 537
8320 kPa, x1 = 0.0245 | – | 543
8340 kPa, x1 = 0.0245 | – | 549
8360 kPa, x1 = 0.0245 | 679 | 556
8360 kPa, x1 = 0.0461 | 791 | –
8380 kPa, x1 = 0.0245 | – | 562
8390 kPa, x1 = 0.0683 | 838 | –
8410 kPa, x1 = 0.0245 | – | 572
8430 kPa, x1 = 0.0245 | 687 | –
8460 kPa, x1 = 0.0245 | – | 582
8460 kPa, x1 = 0.1495 | 1004 | –
8500 kPa, x1 = 0.0461 | 797 | –
8530 kPa, x1 = 0.0245 | 695 | –
8540 kPa, x1 = 0.0683 | 842 | –
8560 kPa, x1 = 0.0989 | 900 | –
8620 kPa, x1 = 0.0245 | 703 | –
8650 kPa, x1 = 0.0461 | 802 | –
8660 kPa, x1 = 0.0683 | 845 | –
8740 kPa, x1 = 0.0245 | 712 | –
8790 kPa, x1 = 0.0683 | 848 | –
8790 kPa, x1 = 0.1495 | 1008 | –
8840 kPa, x1 = 0.0461 | 808 | –
8860 kPa, x1 = 0.0245 | 720 | –
8930 kPa, x1 = 0.0683 | 851 | –
9010 kPa, x1 = 0.0245 | 729 | –
9030 kPa, x1 = 0.0989 | 907 | –
9040 kPa, x1 = 0.0461 | 814 | –
9110 kPa, x1 = 0.0683 | 854 | –
9180 kPa, x1 = 0.0245 | 738 | –
9240 kPa, x1 = 0.0461 | 820 | –
9260 kPa, x1 = 0.0683 | 858 | –
9380 kPa, x1 = 0.0245 | 748 | –
9440 kPa, x1 = 0.0683 | 861 | –
9470 kPa, x1 = 0.0461 | 826 | –
9480 kPa, x1 = 0.0989 | 913 | –
9540 kPa, x1 = 0.1495 | 1015 | –
9580 kPa, x1 = 0.0683 | 864 | –
9600 kPa, x1 = 0.0245 | 758 | –
9710 kPa, x1 = 0.0461 | 833 | –
9790 kPa, x1 = 0.0683 | 868 | –
9850 kPa, x1 = 0.0245 | 767 | –
9950 kPa, x1 = 0.1495 | 1018 | –
9990 kPa, x1 = 0.0461 | 840 | –
10020 kPa, x1 = 0.0989 | 920 | –
10150 kPa, x1 = 0.0245 | 778 | –
10330 kPa, x1 = 0.1495 | 1022 | –
10450 kPa, x1 = 0.0245 | 788 | –
10600 kPa, x1 = 0.0989 | 927 | –
10770 kPa, x1 = 0.1495 | 1026 | –
10840 kPa, x1 = 0.0245 | 799 | –
11180 kPa, x1 = 0.0989 | 933 | –
11240 kPa, x1 = 0.1495 | 1030 | –
11280 kPa, x1 = 0.0245 | 810 | –
11690 kPa, x1 = 0.1495 | 1033 | –
11760 kPa, x1 = 0.0245 | 821 | –
11850 kPa, x1 = 0.0989 | 941 | –
12120 kPa, x1 = 0.1495 | 1036 | –
12160 kPa, x1 = 0.0989 | 944 | –
12320 kPa, x1 = 0.0245 | 833 | –
12560 kPa, x1 = 0.0989 | 948 | –
12600 kPa, x1 = 0.1495 | 1040 | –
12960 kPa, x1 = 0.0245 | 845 | –
13090 kPa, x1 = 0.1495 | 1044 | –
13640 kPa, x1 = 0.1495 | 1047 | –
13700 kPa, x1 = 0.0245 | 857 | –
14170 kPa, x1 = 0.1495 | 1051 | –
14530 kPa, x1 = 0.0245 | 870 | –
14740 kPa, x1 = 0.1495 | 1056 | –
14980 kPa, x1 = 0.0245 | 876 | –
15070 kPa, x1 = 0.1495 | 1058 | –
15150 kPa, x1 = 0.0245 | 879 | –
15320 kPa, x1 = 0.1495 | 1060 | –
